Consider one molecule from ChEMBL document CHEMBL4507319 (2021).

The structures appear in SMILES notation.

Broadly, the IC50 is the concentration that gives 50% inhibition. The low end stands for greater potency in that assay, the high end for weaker potency in that assay.

Experiment [1] has as its target T1, Ephrin type-B receptor 4 (Homo sapiens) (UniProt P54760).
T1 sequence (whole entry): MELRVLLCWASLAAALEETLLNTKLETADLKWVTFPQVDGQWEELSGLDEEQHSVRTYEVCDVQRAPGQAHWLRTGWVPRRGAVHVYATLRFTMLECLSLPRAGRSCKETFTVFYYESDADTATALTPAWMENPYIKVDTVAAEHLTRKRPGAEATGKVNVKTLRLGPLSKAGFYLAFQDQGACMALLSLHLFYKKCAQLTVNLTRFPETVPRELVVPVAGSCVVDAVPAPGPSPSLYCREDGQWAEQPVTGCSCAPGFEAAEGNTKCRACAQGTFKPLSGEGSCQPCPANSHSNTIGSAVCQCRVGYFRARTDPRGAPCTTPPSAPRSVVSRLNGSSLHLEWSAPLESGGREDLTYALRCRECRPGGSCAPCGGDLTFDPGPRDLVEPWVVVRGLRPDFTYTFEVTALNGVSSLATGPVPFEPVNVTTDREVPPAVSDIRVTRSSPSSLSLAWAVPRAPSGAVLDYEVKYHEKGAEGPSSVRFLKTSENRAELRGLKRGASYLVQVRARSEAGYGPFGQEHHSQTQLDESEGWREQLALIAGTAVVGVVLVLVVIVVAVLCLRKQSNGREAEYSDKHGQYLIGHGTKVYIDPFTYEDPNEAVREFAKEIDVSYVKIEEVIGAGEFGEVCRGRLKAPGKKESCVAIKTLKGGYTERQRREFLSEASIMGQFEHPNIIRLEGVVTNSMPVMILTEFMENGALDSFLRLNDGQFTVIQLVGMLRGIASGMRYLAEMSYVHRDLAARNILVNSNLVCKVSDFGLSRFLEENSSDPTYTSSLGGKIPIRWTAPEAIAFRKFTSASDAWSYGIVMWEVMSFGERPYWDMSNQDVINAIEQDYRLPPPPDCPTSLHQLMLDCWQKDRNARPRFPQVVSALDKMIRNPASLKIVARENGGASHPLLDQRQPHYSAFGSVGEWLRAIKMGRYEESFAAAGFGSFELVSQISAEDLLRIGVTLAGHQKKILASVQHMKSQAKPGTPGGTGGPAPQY
Description: EphB4(h) Eurofins kinase panel. The conditions noted are these: Compound concentration 1.0 uM.

Experiment [2] addresses T2, Serine/threonine-protein kinase haspin (Homo sapiens) (UniProt Q8TF76).
T2 sequence (whole entry): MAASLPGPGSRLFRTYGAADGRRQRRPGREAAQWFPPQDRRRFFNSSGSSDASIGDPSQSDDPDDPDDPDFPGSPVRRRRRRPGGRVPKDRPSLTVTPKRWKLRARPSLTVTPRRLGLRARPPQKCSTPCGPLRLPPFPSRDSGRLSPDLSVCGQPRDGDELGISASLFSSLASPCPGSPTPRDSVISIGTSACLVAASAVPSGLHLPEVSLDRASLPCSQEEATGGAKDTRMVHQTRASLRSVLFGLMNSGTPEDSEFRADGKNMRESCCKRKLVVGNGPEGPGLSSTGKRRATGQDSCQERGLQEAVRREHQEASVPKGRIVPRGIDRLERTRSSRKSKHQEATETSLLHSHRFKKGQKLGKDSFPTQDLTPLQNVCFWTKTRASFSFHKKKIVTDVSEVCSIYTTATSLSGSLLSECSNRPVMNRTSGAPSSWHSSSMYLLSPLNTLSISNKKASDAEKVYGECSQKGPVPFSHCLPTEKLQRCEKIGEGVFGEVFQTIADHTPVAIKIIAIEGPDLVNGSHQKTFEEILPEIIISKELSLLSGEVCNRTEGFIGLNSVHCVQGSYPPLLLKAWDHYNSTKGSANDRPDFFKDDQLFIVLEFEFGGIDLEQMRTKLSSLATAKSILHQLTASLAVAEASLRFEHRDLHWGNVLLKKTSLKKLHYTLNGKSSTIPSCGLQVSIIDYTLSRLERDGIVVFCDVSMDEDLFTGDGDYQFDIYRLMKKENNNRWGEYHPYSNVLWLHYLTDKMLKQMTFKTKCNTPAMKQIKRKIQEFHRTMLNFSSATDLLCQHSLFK
Description: Haspin(h) Eurofins kinase panel. The conditions noted are these: Compound concentration 1.0 uM.

Experiment [3] concerns the target T3, NUAK family SNF1-like kinase 1 (Homo sapiens) (UniProt O60285).
T3 sequence (whole entry): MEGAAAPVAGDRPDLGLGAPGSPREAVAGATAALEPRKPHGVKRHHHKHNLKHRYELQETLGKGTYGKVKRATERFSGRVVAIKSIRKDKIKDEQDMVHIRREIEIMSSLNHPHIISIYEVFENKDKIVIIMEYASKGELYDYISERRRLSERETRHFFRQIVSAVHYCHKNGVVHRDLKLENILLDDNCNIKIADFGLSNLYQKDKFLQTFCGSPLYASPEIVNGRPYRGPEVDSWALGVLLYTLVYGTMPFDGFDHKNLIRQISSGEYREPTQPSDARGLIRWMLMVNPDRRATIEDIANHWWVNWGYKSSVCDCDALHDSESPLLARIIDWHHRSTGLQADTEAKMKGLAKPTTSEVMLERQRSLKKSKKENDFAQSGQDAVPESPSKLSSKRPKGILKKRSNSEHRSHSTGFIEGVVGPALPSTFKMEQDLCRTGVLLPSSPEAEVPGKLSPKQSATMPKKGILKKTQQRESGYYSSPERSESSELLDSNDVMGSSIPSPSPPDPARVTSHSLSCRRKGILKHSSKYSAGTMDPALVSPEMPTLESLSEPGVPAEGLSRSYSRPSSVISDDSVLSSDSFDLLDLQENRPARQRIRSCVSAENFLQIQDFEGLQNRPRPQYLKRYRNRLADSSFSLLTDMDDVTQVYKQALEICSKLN
Description: ARK5(h) Eurofins kinase panel. The settings on record: Compound concentration 1.0 uM.

Experiment [4] concerns the target Proto-oncogene tyrosine-protein kinase ROS (Homo sapiens) (UniProt P08922). The experiment is described as follows: Ros(h) Eurofins kinase panel. The conditions noted are these: Compound concentration 1.0 uM.
The target in experiment [5] is Receptor tyrosine-protein kinase erbB-2 (Homo sapiens) (UniProt P04626). Description: ErbB2(h) Eurofins kinase panel. The settings on record: Compound concentration 1.0 uM.
The target of experiment [6] is Dual specificity protein kinase CLK1 (Homo sapiens) (UniProt P49759). Description: CLK1(h) Eurofins kinase panel. The conditions noted are these: Compound concentration 1.0 uM.
Experiment [7] deals with Ribosomal protein S6 kinase alpha-3 (Homo sapiens, UniProt P51812).
Sequence of Ribosomal protein S6 kinase alpha-3 (P51812 whole entry): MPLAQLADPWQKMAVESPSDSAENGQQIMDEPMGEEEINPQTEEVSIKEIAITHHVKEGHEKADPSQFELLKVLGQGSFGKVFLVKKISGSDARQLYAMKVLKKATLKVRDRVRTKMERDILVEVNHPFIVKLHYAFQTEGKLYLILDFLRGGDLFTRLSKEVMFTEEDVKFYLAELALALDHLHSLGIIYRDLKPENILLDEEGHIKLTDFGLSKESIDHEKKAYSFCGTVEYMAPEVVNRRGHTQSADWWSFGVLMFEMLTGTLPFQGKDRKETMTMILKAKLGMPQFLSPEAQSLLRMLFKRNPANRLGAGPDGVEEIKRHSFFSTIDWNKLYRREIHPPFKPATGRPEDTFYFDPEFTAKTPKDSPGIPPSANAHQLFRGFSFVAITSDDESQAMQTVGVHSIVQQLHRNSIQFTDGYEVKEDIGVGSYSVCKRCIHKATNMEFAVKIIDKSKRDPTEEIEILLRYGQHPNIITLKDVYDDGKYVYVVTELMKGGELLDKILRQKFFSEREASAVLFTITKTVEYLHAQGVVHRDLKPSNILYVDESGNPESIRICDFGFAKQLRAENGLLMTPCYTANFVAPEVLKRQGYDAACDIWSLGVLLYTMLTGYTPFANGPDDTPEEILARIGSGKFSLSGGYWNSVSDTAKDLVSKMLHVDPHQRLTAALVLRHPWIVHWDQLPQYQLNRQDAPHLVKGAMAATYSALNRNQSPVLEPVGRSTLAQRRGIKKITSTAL

Sequence of Proto-oncogene tyrosine-protein kinase ROS (Homo sapiens) (P08922 whole entry): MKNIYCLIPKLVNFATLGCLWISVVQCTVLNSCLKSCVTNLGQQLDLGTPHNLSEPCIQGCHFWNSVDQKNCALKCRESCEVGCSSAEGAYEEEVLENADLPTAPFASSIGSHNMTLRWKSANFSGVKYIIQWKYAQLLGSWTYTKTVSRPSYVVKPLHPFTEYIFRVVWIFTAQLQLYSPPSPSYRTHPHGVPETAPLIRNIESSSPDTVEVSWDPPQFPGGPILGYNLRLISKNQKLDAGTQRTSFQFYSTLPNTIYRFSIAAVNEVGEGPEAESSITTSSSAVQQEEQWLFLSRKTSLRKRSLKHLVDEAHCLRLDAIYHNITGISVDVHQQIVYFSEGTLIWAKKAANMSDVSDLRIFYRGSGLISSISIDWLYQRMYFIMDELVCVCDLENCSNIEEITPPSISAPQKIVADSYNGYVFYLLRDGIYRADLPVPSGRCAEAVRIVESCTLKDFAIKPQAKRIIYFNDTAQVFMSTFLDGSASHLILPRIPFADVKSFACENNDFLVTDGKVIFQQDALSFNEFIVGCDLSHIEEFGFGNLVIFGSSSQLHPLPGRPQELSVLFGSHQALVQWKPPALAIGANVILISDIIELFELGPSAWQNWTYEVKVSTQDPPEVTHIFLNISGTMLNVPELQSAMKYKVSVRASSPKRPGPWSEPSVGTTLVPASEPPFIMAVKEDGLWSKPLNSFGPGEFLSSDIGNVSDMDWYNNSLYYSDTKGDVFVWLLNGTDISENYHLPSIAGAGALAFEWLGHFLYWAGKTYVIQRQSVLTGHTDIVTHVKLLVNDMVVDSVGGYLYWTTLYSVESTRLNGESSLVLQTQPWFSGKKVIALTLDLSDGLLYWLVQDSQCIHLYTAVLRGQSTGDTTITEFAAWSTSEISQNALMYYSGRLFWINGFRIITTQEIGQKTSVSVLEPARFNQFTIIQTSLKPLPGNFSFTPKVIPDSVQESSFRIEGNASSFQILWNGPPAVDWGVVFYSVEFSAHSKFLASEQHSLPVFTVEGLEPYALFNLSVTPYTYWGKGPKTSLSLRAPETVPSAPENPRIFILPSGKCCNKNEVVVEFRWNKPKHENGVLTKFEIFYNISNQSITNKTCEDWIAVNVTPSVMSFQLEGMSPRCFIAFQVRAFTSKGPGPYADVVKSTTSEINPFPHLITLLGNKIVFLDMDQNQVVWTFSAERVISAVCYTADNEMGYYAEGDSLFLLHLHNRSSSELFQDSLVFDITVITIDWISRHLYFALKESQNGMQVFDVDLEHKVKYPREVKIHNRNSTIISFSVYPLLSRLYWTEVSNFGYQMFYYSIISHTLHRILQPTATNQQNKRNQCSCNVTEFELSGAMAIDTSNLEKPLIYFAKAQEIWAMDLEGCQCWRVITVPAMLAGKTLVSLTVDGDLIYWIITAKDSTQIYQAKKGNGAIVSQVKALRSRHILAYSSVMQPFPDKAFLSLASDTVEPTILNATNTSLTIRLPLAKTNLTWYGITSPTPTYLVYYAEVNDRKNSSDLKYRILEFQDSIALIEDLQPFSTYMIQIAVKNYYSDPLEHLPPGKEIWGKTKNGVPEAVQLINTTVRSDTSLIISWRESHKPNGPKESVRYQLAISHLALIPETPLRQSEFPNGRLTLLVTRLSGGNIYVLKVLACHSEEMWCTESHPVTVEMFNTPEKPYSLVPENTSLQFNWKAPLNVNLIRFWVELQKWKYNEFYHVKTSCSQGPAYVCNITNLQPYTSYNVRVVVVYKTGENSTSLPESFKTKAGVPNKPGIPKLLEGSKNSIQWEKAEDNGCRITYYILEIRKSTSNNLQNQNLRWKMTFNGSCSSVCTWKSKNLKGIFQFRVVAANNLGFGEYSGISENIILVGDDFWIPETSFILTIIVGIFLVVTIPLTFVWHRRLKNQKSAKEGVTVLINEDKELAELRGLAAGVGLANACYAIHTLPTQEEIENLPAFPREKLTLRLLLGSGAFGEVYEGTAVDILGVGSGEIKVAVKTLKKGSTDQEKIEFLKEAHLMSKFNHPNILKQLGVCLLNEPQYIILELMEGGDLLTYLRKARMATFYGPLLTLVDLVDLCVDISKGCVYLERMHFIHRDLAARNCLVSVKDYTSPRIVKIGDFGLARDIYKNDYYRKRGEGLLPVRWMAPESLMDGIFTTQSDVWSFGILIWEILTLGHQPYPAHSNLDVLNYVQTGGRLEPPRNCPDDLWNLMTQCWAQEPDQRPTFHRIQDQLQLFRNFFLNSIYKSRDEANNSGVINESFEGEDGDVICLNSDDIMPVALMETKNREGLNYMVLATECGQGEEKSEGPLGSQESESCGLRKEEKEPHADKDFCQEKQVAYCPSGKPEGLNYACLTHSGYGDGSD
Sequence of Dual specificity protein kinase CLK1 (Homo sapiens) (P49759 whole entry, looked up): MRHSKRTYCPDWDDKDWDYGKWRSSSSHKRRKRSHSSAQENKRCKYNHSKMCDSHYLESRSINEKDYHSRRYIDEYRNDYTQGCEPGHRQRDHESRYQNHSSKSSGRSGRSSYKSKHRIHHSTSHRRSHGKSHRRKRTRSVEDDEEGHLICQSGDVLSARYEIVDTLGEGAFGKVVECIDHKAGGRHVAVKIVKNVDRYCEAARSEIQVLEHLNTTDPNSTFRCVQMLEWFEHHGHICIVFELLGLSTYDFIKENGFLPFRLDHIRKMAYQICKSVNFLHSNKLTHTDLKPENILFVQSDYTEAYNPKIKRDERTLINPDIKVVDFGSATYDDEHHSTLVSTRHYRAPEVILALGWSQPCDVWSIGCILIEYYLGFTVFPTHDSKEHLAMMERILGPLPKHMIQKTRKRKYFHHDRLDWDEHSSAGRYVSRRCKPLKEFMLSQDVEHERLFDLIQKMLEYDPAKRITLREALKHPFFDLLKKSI
Sequence of Receptor tyrosine-protein kinase erbB-2 (Homo sapiens) (P04626 whole entry): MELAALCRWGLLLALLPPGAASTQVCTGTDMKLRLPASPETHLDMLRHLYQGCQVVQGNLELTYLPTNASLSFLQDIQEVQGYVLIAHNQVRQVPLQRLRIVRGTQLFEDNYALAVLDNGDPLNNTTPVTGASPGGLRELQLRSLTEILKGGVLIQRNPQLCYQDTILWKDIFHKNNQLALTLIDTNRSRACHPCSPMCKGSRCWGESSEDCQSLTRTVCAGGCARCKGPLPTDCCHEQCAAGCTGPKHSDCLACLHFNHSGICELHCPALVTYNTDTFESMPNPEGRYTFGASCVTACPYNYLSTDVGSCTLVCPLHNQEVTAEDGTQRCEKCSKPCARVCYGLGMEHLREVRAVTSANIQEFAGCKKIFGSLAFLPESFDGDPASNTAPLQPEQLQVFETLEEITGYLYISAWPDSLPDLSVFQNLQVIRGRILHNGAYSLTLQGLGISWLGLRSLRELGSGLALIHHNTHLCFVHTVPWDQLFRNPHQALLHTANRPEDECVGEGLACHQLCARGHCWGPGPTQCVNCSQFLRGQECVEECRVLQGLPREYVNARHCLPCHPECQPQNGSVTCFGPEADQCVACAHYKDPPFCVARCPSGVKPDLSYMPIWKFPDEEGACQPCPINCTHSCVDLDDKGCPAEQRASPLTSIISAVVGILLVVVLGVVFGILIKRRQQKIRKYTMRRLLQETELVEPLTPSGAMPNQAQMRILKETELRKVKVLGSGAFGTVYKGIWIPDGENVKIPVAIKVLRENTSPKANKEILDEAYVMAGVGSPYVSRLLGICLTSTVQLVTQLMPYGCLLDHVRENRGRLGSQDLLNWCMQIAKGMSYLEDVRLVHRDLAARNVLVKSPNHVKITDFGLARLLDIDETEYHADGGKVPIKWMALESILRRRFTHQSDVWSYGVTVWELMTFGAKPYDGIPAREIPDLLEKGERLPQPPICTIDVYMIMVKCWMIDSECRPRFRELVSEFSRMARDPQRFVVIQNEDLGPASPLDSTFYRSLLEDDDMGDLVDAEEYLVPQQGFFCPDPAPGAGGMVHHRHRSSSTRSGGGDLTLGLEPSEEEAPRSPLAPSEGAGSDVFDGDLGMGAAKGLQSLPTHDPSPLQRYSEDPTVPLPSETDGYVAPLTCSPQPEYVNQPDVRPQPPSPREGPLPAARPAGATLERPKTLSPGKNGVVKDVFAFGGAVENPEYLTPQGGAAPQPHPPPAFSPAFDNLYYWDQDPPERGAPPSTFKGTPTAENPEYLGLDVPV

With `CCc1ccccc1C(=O)Nc1n[nH]c2c(C)c(F)c(C3C(C#N)=C(C)N(C)C(C)=C3C#N)cc12` [BAY-3827], the % residual kinase activity in experiment [1] was 77%; in experiment [2], 107%; in experiment [3], 21%; in experiment [4], 100%; in experiment [5], 95%; in experiment [6], 108%. Further, in experiment [7], half-maximal inhibition (IC50) was put at 52 nM.
